System: 695427-040-R-J1-PDC complex spheroids, viability percent T/C
Experiment: Anticancer human tumor 695427-040-R-J1-PDC patient-derived colon adenocarcinoma cell line growth inhibition [GQUAD]
Settings: for IC50: curve of first compound; for viability, T/C: stronger effect = lower value
In short: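 Viability of tumor cells grown as complex spheroids with endothelial and stromal cells, exposed to drug combinations. Top concentration at or near clinical Cmax (else 10 microM), diluted in half-log increments.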

[1] = second compound 0.0316 µM, first compound 0.0316 µM
[2] = second compound 0.0316 µM, first compound 0.1 µM
[3] = second compound 0.0316 µM, first compound 0.316 µM
[4] = second compound 0.0316 µM, first compound 1 µM
[5] = second compound 0.0316 µM, first compound 3.16 µM
[6] = second compound 0.0316 µM, first compound 10 µM
[7] = second compound 0.1 µM, first compound 0.0316 µM
[8] = second compound 0.1 µM, first compound 0.1 µM
[9] = second compound 0.1 µM, first compound 0.316 µM
[10] = second compound 0.1 µM, first compound 1 µM
[11] = second compound 0.1 µM, first compound 3.16 µM
[12] = second compound 0.1 µM, first compound 10 µM
[13] = second compound 0.316 µM, first compound 0.0316 µM
[14] = second compound 0.316 µM, first compound 0.1 µM
[15] = second compound 0.316 µM, first compound 0.316 µM
[16] = second compound 0.316 µM, first compound 1 µM
[17] = second compound 0.316 µM, first compound 3.16 µM
[18] = second compound 0.316 µM, first compound 10 µM
[19] = second compound 1 µM, first compound 0.0316 µM
[20] = second compound 1 µM, first compound 0.1 µM
[21] = second compound 1 µM, first compound 0.316 µM
[22] = second compound 1 µM, first compound 1 µM
[23] = second compound 1 µM, first compound 3.16 µM
[24] = second compound 1 µM, first compound 10 µM
[25] = second compound 3.16 µM, first compound 0.0316 µM
[26] = second compound 3.16 µM, first compound 0.1 µM
[27] = second compound 3.16 µM, first compound 0.316 µM
[28] = second compound 3.16 µM, first compound 1 µM
[29] = second compound 3.16 µM, first compound 3.16 µM
[30] = second compound 3.16 µM, first compound 10 µM
[31] = second compound 10 µM, first compound 0.0316 µM
[32] = second compound 10 µM, first compound 0.1 µM
[33] = second compound 10 µM, first compound 0.316 µM
[34] = second compound 10 µM, first compound 1 µM
[35] = second compound 10 µM, first compound 3.16 µM
[36] = second compound 10 µM, first compound 10 µM
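Note: spheroids exposed to compounds for seven days before readout.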

`CC1COCCN1c1cc(C2(O)CC3CCC(C2)O3)c2cnn(-c3ccn[nH]3)c2n1` (stereo unspecified) + Cc1cnc(CNC(=O)c2c(=O)c3ccc(N4CCCN(C)CC4)nc3n3c2sc2ccccc23)cn1 was tested, and the IC50 (second compound 0.0316 µM) was 277 nM, the IC50 (second compound 0.1 µM) was 220 nM and the IC50 (second compound 0.316 µM) was 91.1 nM. For the same compound, the IC50 (second compound 1 µM) was under 31.6 nM, the IC50 (second compound 3.16 µM) was under 31.6 nM and the IC50 (second compound 10 µM) was under 31.6 nM. The viability, T/C [1] was 75.1%, the viability, T/C [2] was 63% and the viability, T/C [3] was 49.8%. The viability, T/C [4] was 31.1%, the viability, T/C [5] was 26% and the viability, T/C [6] was 18.1%. It also gave a viability, T/C [7] of 79%, a viability, T/C [8] of 57% and a viability, T/C [9] of 47%. The viability, T/C [10] was 34.1%, the viability, T/C [11] was 30.3% and the viability, T/C [12] was 20.9%. For the same compound, the viability, T/C [13] was 81.7%, the viability, T/C [14] was 41.3% and the viability, T/C [15] was 40.2%. The viability, T/C [16] was 26.8%, the viability, T/C [17] was 26.4% and the viability, T/C [18] was 18.4%. The viability, T/C [19] was 38.5%, the viability, T/C [20] was 41.1% and the viability, T/C [21] was 31.5%. For the same compound, the viability, T/C [22] was 29.7%, the viability, T/C [23] was 28.2% and the viability, T/C [24] was 14.3%. For the same compound, the viability, T/C [25] was 30.2%, the viability, T/C [26] was 35% and the viability, T/C [27] was 28.5%. For the same compound, the viability, T/C [28] was 16.9%, the viability, T/C [29] was 19.5% and the viability, T/C [30] was 4.04%. The viability, T/C [31] was 22.1%, the viability, T/C [32] was 22.2% and the viability, T/C [33] was 19.3%. For the same compound, the viability, T/C [34] was 15.2%, the viability, T/C [35] was 8.74% and the viability, T/C [36] was 0.42%.
With `CC1COCCN1c1cc(C2(S(C)(=N)=O)CC2)nc(-c2ccnc3[nH]ccc23)n1` (stereo unspecified) + Cc1cnc(CNC(=O)c2c(=O)c3ccc(N4CCCN(C)CC4)nc3n3c2sc2ccccc23)cn1 the IC50 (second compound 0.0316 µM) was over 10000 nM, the IC50 (second compound 0.1 µM) was over 10000 nM and the IC50 (second compound 0.316 µM) was over 10000 nM. For the same compound, the IC50 (second compound 1 µM) was over 10000 nM, the IC50 (second compound 3.16 µM) was under 31.6 nM and the IC50 (second compound 10 µM) was under 31.6 nM. It also gave a viability, T/C [1] of 95.6%, a viability, T/C [2] of 93.5% and a viability, T/C [3] of 95.3%. The viability, T/C [4] was 94.2%, the viability, T/C [5] was 74.8% and the viability, T/C [6] was 66.2%. The viability, T/C [7] was 85.2%, the viability, T/C [8] was 79.1% and the viability, T/C [9] was 89.3%. It also gave a viability, T/C [10] of 64.4%, a viability, T/C [11] of 74.2% and a viability, T/C [12] of 55.4%. For the same compound, the viability, T/C [13] was 76.8%, the viability, T/C [14] was 71.5% and the viability, T/C [15] was 77.5%. It also gave a viability, T/C [16] of 66.1%, a viability, T/C [17] of 77.9% and a viability, T/C [18] of 50.4%. The viability, T/C [19] was 51.8%, the viability, T/C [20] was 66.6% and the viability, T/C [21] was 59.7%. The viability, T/C [22] was 66.7%, the viability, T/C [23] was 62.7% and the viability, T/C [24] was 47.3%. For the same compound, the viability, T/C [25] was 33.4%, the viability, T/C [26] was 58.1% and the viability, T/C [27] was 53.2%. For the same compound, the viability, T/C [28] was 49.4%, the viability, T/C [29] was 51.5% and the viability, T/C [30] was 36.9%. For the same compound, the viability, T/C [31] was 33.8%, the viability, T/C [32] was 36.5% and the viability, T/C [33] was 41.7%. For the same compound, the viability, T/C [34] was 39.1%, the viability, T/C [35] was 44% and the viability, T/C [36] was 25.5%.
Compound `Cn1ncnc1[C@H]1c2n[nH]c(=O)c3cc(F)cc(c23)N[C@@H]1c1ccc(F)cc1` + Cc1cnc(CNC(=O)c2c(=O)c3ccc(N4CCCN(C)CC4)nc3n3c2sc2ccccc23)cn1 has an IC50 (second compound 0.0316 µM) of over 316 nM, an IC50 (second compound 0.1 µM) of over 316 nM and an IC50 (second compound 0.316 µM) of over 316 nM. For the same compound, the IC50 (second compound 1 µM) was over 316 nM, the IC50 (second compound 3.16 µM) was over 316 nM and the IC50 (second compound 10 µM) was under 0.999 nM. The viability, T/C (second compound 0.0316 µM, first compound 0.000999 µM) was 98.9%, the viability, T/C (second compound 0.0316 µM, first compound 0.00316 µM) was 84.2% and the viability, T/C (second compound 0.0316 µM, first compound 0.00999 µM) was 96.4%. For the same compound, the viability, T/C [1] was 66.4%, the viability, T/C (second compound 0.0316 µM, first compound 0.0999 µM) was 86.2% and the viability, T/C [3] was 71.7%. For the same compound, the viability, T/C (second compound 0.1 µM, first compound 0.000999 µM) was 93.5%, the viability, T/C (second compound 0.1 µM, first compound 0.00316 µM) was 101% and the viability, T/C (second compound 0.1 µM, first compound 0.00999 µM) was 87.5%. The viability, T/C [7] was 62.9%, the viability, T/C (second compound 0.1 µM, first compound 0.0999 µM) was 91.8% and the viability, T/C [9] was 60.6%. For the same compound, the viability, T/C (second compound 0.316 µM, first compound 0.000999 µM) was 65.7%, the viability, T/C (second compound 0.316 µM, first compound 0.00316 µM) was 83.5% and the viability, T/C (second compound 0.316 µM, first compound 0.00999 µM) was 88.1%. The viability, T/C [13] was 71.5%, the viability, T/C (second compound 0.316 µM, first compound 0.0999 µM) was 66% and the viability, T/C [15] was 66%. For the same compound, the viability, T/C (second compound 1 µM, first compound 0.000999 µM) was 53.7%, the viability, T/C (second compound 1 µM, first compound 0.00316 µM) was 53.9% and the viability, T/C (second compound 1 µM, first compound 0.00999 µM) was 60.7%. The viability, T/C [19] was 55.9%, the viability, T/C (second compound 1 µM, first compound 0.0999 µM) was 82.5% and the viability, T/C [21] was 56.5%. It also gave a viability, T/C (second compound 3.16 µM, first compound 0.000999 µM) of 51.6%, a viability, T/C (second compound 3.16 µM, first compound 0.00316 µM) of 48.7% and a viability, T/C (second compound 3.16 µM, first compound 0.00999 µM) of 53%. It also gave a viability, T/C [25] of 62.1%, a viability, T/C (second compound 3.16 µM, first compound 0.0999 µM) of 63.3% and a viability, T/C [27] of 46.5%. For the same compound, the viability, T/C (second compound 10 µM, first compound 0.000999 µM) was 37.8%, the viability, T/C (second compound 10 µM, first compound 0.00316 µM) was 44.7% and the viability, T/C (second compound 10 µM, first compound 0.00999 µM) was 58.2%. The viability, T/C [31] was 47.7%, the viability, T/C (second compound 10 µM, first compound 0.0999 µM) was 58.5% and the viability, T/C [33] was 40.1%.

— PubChem BioAssay AID2060492 (Molecular Pharmacology Branch, DTP, NCI, 2025)
